Patent US20260262643A1, “HERBICIDAL BENZOXAZINES” (FMC CORPORATION, priority 2022, published 2026)

Assays:
barnyardgrass [1] = assay: Test A preemergence; assay type: in vivo, Echinochloa crusgalli; details: visual injury after 10 days, 0 to 100 scale, 0 is no effect, 100 is complete control
From the text: (§1) Seeds of plant species selected from barnyardgrass (Echinochloa crusgalli), blackgrass (Alopecurus myosuroides), corn (Zea mays), foxtail, giant (giant foxtail, Setaria faberi), goosegrass (Eleusine indica), kochia (Bassia scoparia), oat, wild (wild oat, Avena fatua), pigweed, palmer (palmer amaranth, palmer pigweed, Amaranthus palmeri), Pigweed, Redroot (redroot pigweed, Amaranthus retroflexus), ragweed (common ragweed, Ambrosia artemisiifolia), ryegrass, Italian (italian ryegrass, Lolium multiflorum), soybean (Glycine max), and wheat (Triticum aestivum) were planted into a blend of loam soil and sand and treated preemergence with a directed soil spray using test chemicals formulated in a non-phytotoxic solvent mixture which included a surfactant. At the same time, plants selected from these crops and weed species and also galium (catchweed bedstraw, Galium aparine) and horseweed (Erigeron canadensis) were planted in pots containing the same blend of loam soil and sand and treated with postemergence applications of test chemicals formulated in the same manner. Plants ranged in height from 2 to 10 cm and were in the one- to two-leaf stage for the postemergence treatment. Treated plants and untreated controls were maintained in a greenhouse for 10 days, after which time all treated plants were compared to untreated controls and visually evaluated for injury. Plant response ratings, summarized in Table A, are based on a 0 to 100 scale where 0 is no effect and 100 is complete control. A dash (-) response means no test result.

blackgrass [2] = assay: Test A preemergence; assay type: in vivo, Alopecurus myosuroides; details: visual injury after 10 days, 0 to 100 scale, 0 is no effect, 100 is complete control
Summary of the method: (§2)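 Greenhouse pot test, 10 days. Compound (non-phytotoxic solvent, surfactant) sprayed on soil at seeding or on seedlings at one- to two-leaf stage. Visual injury rated 0–100 against untreated plants.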

corn [3] = assay: Test A preemergence; assay type: in vivo, Zea mays; details: visual injury after 10 days, 0 to 100 scale, 0 is no effect, 100 is complete control
Summary of the method: as §2

kochia [4] = assay: Test A preemergence; assay type: in vivo, Bassia scoparia; details: visual injury after 10 days, 0 to 100 scale, 0 is no effect, 100 is complete control
Summary of the method: as §2

oat, wild [5] = assay: Test A preemergence; assay type: in vivo, Avena fatua; details: visual injury after 10 days, 0 to 100 scale, 0 is no effect, 100 is complete control
Summary of the method: as §2

pigweed, palmer [6] = assay: Test A preemergence; assay type: in vivo, Amaranthus palmeri; details: visual injury after 10 days, 0 to 100 scale, 0 is no effect, 100 is complete control
Summary of the method: as §2

ragweed [7] = assay: Test A preemergence; assay type: in vivo, Ambrosia artemisiifolia; details: visual injury after 10 days, 0 to 100 scale, 0 is no effect, 100 is complete control
Summary of the method: as §2

ryegrass, Italian [8] = assay: Test A preemergence; assay type: in vivo, Lolium multiflorum; details: visual injury after 10 days, 0 to 100 scale, 0 is no effect, 100 is complete control
Summary of the method: as §2

soybean [9] = assay: Test A preemergence; assay type: in vivo, Glycine max; details: visual injury after 10 days, 0 to 100 scale, 0 is no effect, 100 is complete control
Summary of the method: as §2

wheat [10] = assay: Test A preemergence; assay type: in vivo, Triticum aestivum; details: visual injury after 10 days, 0 to 100 scale, 0 is no effect, 100 is complete control
Summary of the method: as §2

barnyardgrass [11] = assay: Test A postemergence; assay type: in vivo, Echinochloa crusgalli; details: postemergence, 10 days
From the text: as §1

blackgrass [12] = assay: Test A postemergence; assay type: in vivo, Alopecurus myosuroides; details: postemergence, 10 days
Summary of the method: as §2

corn [13] = assay: Test A postemergence; assay type: in vivo, Zea mays; details: postemergence, 10 days
Summary of the method: as §2

kochia [14] = assay: Test A postemergence; assay type: in vivo, Bassia scoparia; details: postemergence, 10 days
Summary of the method: as §2

oat, wild [15] = assay: Test A postemergence; assay type: in vivo, Avena fatua; details: postemergence, 10 days
Summary of the method: as §2

pigweed, palmer [16] = assay: Test A postemergence; assay type: in vivo, Amaranthus palmeri; details: postemergence, 10 days
Summary of the method: as §2

ragweed [17] = assay: Test A postemergence; assay type: in vivo, Ambrosia artemisiifolia; details: postemergence, 10 days
Summary of the method: as §2

ryegrass, Italian [18] = assay: Test A postemergence; assay type: in vivo, Lolium multiflorum; details: postemergence, 10 days
Summary of the method: as §2

soybean [19] = assay: Test A postemergence; assay type: in vivo, Glycine max; details: postemergence, 10 days
Summary of the method: as §2

wheat [20] = assay: Test A postemergence; assay type: in vivo, Triticum aestivum; details: postemergence, 10 days
Summary of the method: as §2

galium = assay: Test A postemergence; assay type: in vivo, Galium aparine; details: postemergence, 10 days
Summary of the method: as §2

horseweed = assay: Test A postemergence; assay type: in vivo, Erigeron canadensis; details: postemergence, 10 days
Summary of the method: as §2

barnyardgrass [21] = assay: Test B flooded paddy test; assay type: in vivo, Echinochloa crus-galli; details: 250 g ai/ha, Flood, 13 days, 0 to 100 scale (0 no effect, 100 complete control)
Summary of the method: (§3)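 Percent weed or crop control, judged by eye on a 0–100 scale 13 days post-treatment, reflects compound added to a 3 cm flood maintained over 2-leaf plants in the greenhouse. Missing entries are marked with a dash.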

ducksalad = assay: Test B flooded paddy test; assay type: in vivo, Heteranthera limosa; details: 250 g ai/ha, Flood, 13 days, 0 to 100 scale (0 no effect, 100 complete control)
Summary of the method: as §3

rice = assay: Test B flooded paddy test; assay type: in vivo, Oryza sativa; details: 250 g ai/ha, Flood, 13 days, 0 to 100 scale (0 no effect, 100 complete control)
Summary of the method: as §3

sedge, umbrella = assay: Test B flooded paddy test; assay type: in vivo, Cyperus difformis; details: 250 g ai/ha, Flood, 13 days, 0 to 100 scale (0 no effect, 100 complete control)
Summary of the method: as §3

[22] = 125 g ai/ha, 0 to 100 scale, 0 no effect, 100 complete control
[23] = 500 g ai/ha, visual injury, 0 to 100 scale (0 no effect, 100 complete control)

C[C@H]1CN(C(=O)c2cc(C3CC3)cc(-n3cncn3)c2)c2cccc(Cl)c2O1 [Compound 136]
Plant response rating, Barnyardgrass (barnyardgrass [1]; 125 g ai/ha): 30
Plant response rating, Barnyardgrass (barnyardgrass [1]; 500 g ai/ha): 90
Plant response rating, Blackgrass (blackgrass [2]; 125 g ai/ha): 70
Plant response rating, Blackgrass (blackgrass [2]; 500 g ai/ha): 90
Plant response rating, Corn (corn [3]; 125 g ai/ha): 0
Plant response rating, Corn (corn [3]; 500 g ai/ha): 30
Plant response rating, Kochia (kochia [4]; 125 g ai/ha): 0
Plant response rating, Kochia (kochia [4]; 500 g ai/ha): 70
Plant response rating, Oat, Wild (oat, wild [5]; 125 g ai/ha): 20
Plant response rating, Oat, Wild (oat, wild [5]; 500 g ai/ha): 30
Plant response rating, Pigweed, Palmer (pigweed, palmer [6]; 125 g ai/ha): 70
Plant response rating, Pigweed, Palmer (pigweed, palmer [6]; 500 g ai/ha): 100
Plant response rating, Ragweed (ragweed [7]; 125 g ai/ha): 0
Plant response rating, Ragweed (ragweed [7]; 500 g ai/ha): 20
Plant response rating, Ryegrass, Italian (ryegrass, Italian [8]; 125 g ai/ha): 80
Plant response rating, Ryegrass, Italian (ryegrass, Italian [8]; 500 g ai/ha): 90
Plant response rating, Soybean (soybean [9]; 125 g ai/ha): 10
Plant response rating, Soybean (soybean [9]; 500 g ai/ha): 60
Plant response rating, Wheat (wheat [10]; 125 g ai/ha): 10
Plant response rating, Wheat (wheat [10]; 500 g ai/ha): 30
Barnyardgrass plant response rating (barnyardgrass [11]; [22]): 20
Plant response rating, Barnyardgrass (barnyardgrass [11]; [23]): 70
Blackgrass plant response rating (blackgrass [12]; [22]): 90
Plant response rating, Blackgrass (blackgrass [12]; [23]): 100
Corn plant response rating (corn [13]; [22]): 30
Plant response rating, Corn (corn [13]; [23]): 90
Kochia plant response rating (kochia [14]; [22]): 30
Plant response rating, Kochia (kochia [14]; [23]): 70
Oat, Wild plant response rating (oat, wild [15]; [22]): 10
Plant response rating, Oat, Wild (oat, wild [15]; [23]): 30
Pigweed, Palmer plant response rating (pigweed, palmer [16]; [22]): 30
Plant response rating, Pigweed, Palmer (pigweed, palmer [16]; [23]): 90
Ragweed plant response rating (ragweed [17]; [22]): 20
Plant response rating, Ragweed (ragweed [17]; [23]): 30
Ryegrass, Italian plant response rating (ryegrass, Italian [18]; [22]): 60
Plant response rating, Ryegrass, Italian (ryegrass, Italian [18]; [23]): 90
Soybean plant response rating (soybean [19]; [22]): 100
Plant response rating, Soybean (soybean [19]; [23]): 100
Wheat plant response rating (wheat [20]; [22]): 20
Plant response rating, Wheat (wheat [20]; [23]): 30
Galium plant response rating (galium; [22]): 80
Plant response rating, Galium (galium; [23]): 100
Horseweed plant response rating (horseweed; [22]): 0
Plant response rating, Horseweed (horseweed; [23]): 0
Plant response rating, Barnyardgrass (barnyardgrass [21]): 0
Plant response rating, Ducksalad (ducksalad): 0
Plant response rating, Rice (rice): 0
Plant response rating, Sedge, Umbrella (sedge, umbrella): 0
